Experimental data reported in patent EP0118036A1, “Biologically active ketone derivative, preparation and use” (THE WELLCOME FOUNDATION LIMITED, priority 1983, dated 1984).
Structures can show the parent of a compound that is named as a salt.

Experiments:
[1] = free base; cited from earlier work
[2] = Storage stability of tablets (Examples 3, 4, 10A, 10B); assay type: physicochemical; conditions: summary in words of Table II
Method: In order to compare the storage stability of the tablets of Examples 3 and 4 with similar tablets containing the hydrochloride salt of 2-tert-butylamino-3'-chloropropiophenone, tablets having the following compositions were prepared in an analogous manner to that described in Examples 3 and 4:-
The four sets of tablets (3, 4, 10A and 10B) were tested for stability. Testing was carried out on tablets: • (a) stored at 50°C in closed bottles; and • (b) stored at 37°C in open bottles under a relative humidity of 75%.
The results are summarised in the following Table II in which the data are assay values expressed as percentage of labeled strength of the active salt, and "mo." indicates month: […]

[3] = system: tetrabenazine induced sedation; experiment: Antagonism of tetrabenazine induced sedation (modified Vernier method); assay type: in vivo, Mice; conditions: for Percent Antagonism of Tetrabenazine Induced Sedation: CD1 male mice, 35 mg/kg tetrabenazine hydrochloride ip
Method: Antagonism of tetrabenazine induced sedation was measured using a modification of the method of Vernier, et al., First Hahnemann Symposium on Psychosomatic Medicine, ed. Nodim and Moyer, pub. Lea and Febiger, Philadelphia, 1962.
Mice, three groups of 12 CD1 males each, were injected intraperitoneally (ip) with a solution of 2-tert-butylamino-3'-chlorogropiophenone hydrochloride (Cpd A) or 2-tert-butylamino-3'-chloropropiophenone maleate (Cpd B) or with saline. Thirty minutes later each of the mice was injected ip with a solution containing 35 mg/kg tetrabenazine hydrochloride. Thirty minutes after the injection of tetrabenazine each mouse was examined for its level of exploratory behavior which was scored on a modification of the arbitrary scale defined by Vernier, et al. The dose of tetrabenazine used was sufficient to cause 90 to 100 percent of the mice to remain motionless even when placed in a new environment. In the test results reported 100 percent would represent total reversal of tetrabenazine effects.
The doses of Cpd B are equivalent to the corresponding doses of Cpd A on a molar basis.

[4] = Stability of salts with conventional pharmaceutical carriers or excipients; assay type: physicochemical; conditions: tableting excipients, particularly magnesium stearate and stearic acid; result in words
Description: It will be appreciated that, in order for the salts to be used in medical therapy, it is necessary to formulate them into pharmaceutical compositions suitable for administration to the patient. The formulation of such compositions entails the admixture or contacting of the salts with various pharmaceutical carriers or excipients. Examples of solid pharmaceutical compositions which are mentioned in British Specification 1,340,032 are tablets, cachets, capsules and suppositories. Of these various types of composition, tablets and capsules are particularly preferred forms as it is generally desired to administer the active compound by the oral route. […] The formulation of the salts of the free base in capsules also presents problems because gelatin, which is commonly used to make the capsule shell, is hydrophilic and therefore creates a humid environment within the capsule, which has a deleterious effect on the 2-tert-butylamino-3'chloropropiophenone salt present in the capsule. It will therefore be appreciated that considerable difficulty arose in finding a salt of 2-tert-butylamino-3'-chloropropiophenone which has sufficient stability when formulated in pharmaceutical compositions.
A further advantage of the maleate salt is that it is much less corrosive than, for example, the hydrochloride salt which tends to corrode apparatus used in its preparation and formulation. […]

Charles River CD1 mice = experiment: 14-day oral (gavage) toxicity in mice; assay type: in vivo; conditions: 260 mg/kg per day for 14 days, gavage in 0.5 percent carboxymethylcellulose, four males and four females
Method: 2-Tert-butylamino-3'-chloropropiophenone maleate was administered by gavage in 0.5 percent carboxymethylcellulose to Charles River CD1 mice (four males and four females) at a dose of 260 mg/kg per day for 14 days.

[5] = Comparative bulk storage stability of salts of 2-tert-butylamino-3'-chloropropiophenone; assay type: physicochemical; conditions: bulk salt, result in words
Description: The propiophenone moiety breaks down into hydroxyketones, a diketone and meta-chlorobenzoic acid. It is of course an important desideratum for : a pharmaceutical product that it should have a reasonably good bulk stability in order to avoid or reduce wastage resulting from decomposition of the active moiety during the period between its synthesis and its use in formulating the final dosage form.
Small amounts of various salts of 2-tert-butylamino-3'-chloropropiophenone were each placed in a clean borosilicate glass vial which was sealed with a Teflon-faced rubber closure. The samples were then placed in an oven maintained at 70°C (except for the formate which was stored at 75°C) and visual comparisons were made over a period of 1-3 days. The observations are recorded in the following Table I: […]

CC(NC(C)(C)C)C(=O)c1cccc(Cl)c1 (stereo not drawn) [2-tert-butylamino-3'-chloropropiophenone]
pKa [1]: 8.5-9

CC(NC(C)(C)C)C(=O)c1cccc(F)c1 (stereo not drawn) [3'-fluoro analogue]
pKa [1]: 8.5-9

CC(NC(C)(C)C)C(=O)c1cccc(Cl)c1 (stereo not drawn) [Cpd A, 2-tert-butylamino-3'-chlorogropiophenone hydrochloride]
stability in the formulated tablets [2]: limited stability | Percent Antagonism of Tetrabenazine Induced Sedation ([3]; dose 12.5 mg/kg (ip)): 17.5% | Percent Antagonism of Tetrabenazine Induced Sedation ([3]; dose 25 mg/kg (ip)): 50% | Percent Antagonism of Tetrabenazine Induced Sedation ([3]; dose 50 mg/kg (ip)): 62.5% | stability in association with conventional pharmaceutical carriers and excipients [4]: limited stability

CC(NC(C)(C)C)C(=O)c1cccc(Cl)c1.O=C(O)/C=C\C(=O)O (stereo not drawn) [Cpd B, 2-tert-butylamino-3'-chloropropiophenone maleate]
stability in the formulated tablets [2]: relatively stable | survival (Charles River CD1 mice): All of the mice survived | Percent Antagonism of Tetrabenazine Induced Sedation ([3]; dose 16.1 mg/kg (ip)): 27.5% | Percent Antagonism of Tetrabenazine Induced Sedation ([3]; dose 32.2 mg/kg (ip)): 62.5% | Percent Antagonism of Tetrabenazine Induced Sedation ([3]; dose 64.4 mg/kg (ip)): 60% | antidepressant activity in the tetrabenazine-induced sedation test ([3]; rodents, result in words): good antidepressant activity | stability in association with conventional pharmaceutical carriers and excipients [4]: advantageous stability characteristics

CC(NC(C)(C)C)C(=O)c1cccc(Cl)c1 (stereo not drawn) [napthalenesulphonate monohydrate]
stability upon storage [5]: unstable upon storage
